The values below come from PMC6273635, “Synthesis and Structure-Activity Relationships of Imidazole-Coumarin Conjugates against Hepatitis C Virus” (Molecules, 2016).

Each structure is given as a SMILES string. pEC50: −log10 of the molar value. Like-named read-outs stand apart in the source and are kept apart here.

In series [1] the test system is HCV genotype 1b subgenomic Huh 5-2 replicon system. As to the kind of experiment: Antiviral effect on HCV 1b subgenomic replicon replication in Huh 5-2 cells. The format is cell-based, Hepatitis C virus. As to the method: (§1) The antiviral activity of conjugated compounds 3a–g, 7a–e, 9a,b,d–f, and 11b,e,f in the HCV genotype 1b subgenomic Huh 5-2 replicon system was evaluated according to established procedures. On the basis of the dose-response curves that were obtained, the concentration of a compound that inhibited virus replication by 50% (i.e., EC50) and the concentration of compound that reduced host cell metabolism by 50% (i.e., CC50) were obtained. These values subsequently allowed us to calculate the selectivity index (i.e., SI = CC50/EC50), which is a measure for the therapeutic window of the compound in an assay system. […] The observed antiviral effect of other compounds was most likely related mainly to the pleiotropic or aspecific effect on the host cell.

Series [2] is described as follows: Anti-metabolic effect on host cell metabolism (MTS method) in Huh 5-2 replicon cells. Type of series: cell-based. Conditions: human, Huh 5-2 cells (HCV genotype 1b subgenomic replicon), concentration reducing host cell metabolism by 50%, average of triplicate determinations. As to the method:
as §1

In series [3] the test system is HCV genotype 1b subgenomic Huh 5-2 replicon system. Further details: method as in PMID 17977606. The conditions noted are these: HCV 1b subgenomic replicon in Huh 5-2 cells; reference known compounds; ref [11]; cited from earlier work.
Series [4] concerns Huh 5-2 cells. Further details: method as in PMID 17977606. Conditions: host cell metabolism, MTS method, reference known compounds, ref [11]; cited from earlier work.
In series [5] the test system is Huh 5-2 cells. As to the kind of experiment: Anti-metabolic effect on host cell metabolism (MTS method) in Huh 5-2 replicon cells. Conditions: concentration reducing host cell metabolism by 50%, average of triplicate determinations. The format is cell-based. The protocol: as §1

Regarding `O=c1oc2ccc(Br)cc2cc1CSc1nccn1[C@@H]1O[C@H](CO)[C@@H](O)[C@H]1O` [Compound 7d, 1-(β-D-Ribofuranos-1″-yl)-2-[(6′-bromocoumarin-3′-yl)methylthio]imidazole], the melting point fell in the range of 188.8 to 189.4 °C. In series [1] (Hepatitis C virus, Huh-5-2), this compound gave a pEC50 of 4.72. The compound further showed a CC50 in series [2] of 107 µM.

Consider `O=c1oc2ccc(Br)cc2cc1CSc1ncc[nH]1` [Compound 3d, 2-[(6′-Bromocoumarin-3′-yl)methylthio]imidazole], for which the melting point is 276.8 to 277.4 °C. The same compound gave a pEC50 in series [1] (Hepatitis C virus, Huh-5-2) of 5.29. This compound displayed a CC50 in series [2] of 75 µM.

For the compound `COc1cccc2cc(CSc3nc4ccccc4[nH]3)c(=O)oc12` [Compound 12e], in series [3], the pEC50 was 5.00. In addition, the CC50 in the series with Huh 5-2 cells [4] was 27 µM.

With `Cn1ccnc1SCc1cc2cc(Cl)ccc2oc1=O` [Compound 3g, 1-Methyl-2-[(6′-chlorocoumarin-3′-yl)methylthio]imidazole], the melting point fell in the range of 256.2 to 257.2 °C. The pEC50 in series [1] (Hepatitis C virus, Huh-5-2) is 4.82. It took 75 µM to reach half-maximal cytotoxicity in series [2] (CC50).

For `O=c1oc2ccc(Br)cc2cc1CSc1nc2ccccc2[nH]1` [Compound 12d], the pEC50 in series [3] is 5.40. Besides, in the series on Huh 5-2 cells [4], the 50% cytotoxic concentration (CC50) is 42 µM.

Regarding `Cn1ccnc1SCc1cc2ccccc2oc1=O` [Compound 3f, 1-Methyl-2-[(coumarin-3′-yl)methylthio]imidazole], the melting point was in the range of 244.2 to 244.8 °C. Besides, the pEC50 in series [1] (Hepatitis C virus, Huh-5-2) was 5.17. Moreover, the CC50 in series [2] is 49 µM.

The compound `COc1cccc2cc(CSc3nccn3[C@@H]3O[C@H](CO)[C@@H](O)[C@H]3O)c(=O)oc12` [Compound 7e, 1-(β-D-Ribofuranos-1″-yl)-2-[(8′-methoxycoumarin-3′-yl)methylthio]imidazole] returned a melting point of 169.6 to 170.4 °C. The compound also showed a pEC50 in series [1] (Hepatitis C virus, Huh-5-2) of 4.47. In series [2], it took 119 µM to reach half-maximal cytotoxicity (CC50).

`Cc1ccc2oc(=O)c(CSc3nc4c(=O)[nH]cnc4n3[C@@H]3O[C@H](CO)[C@@H](O)[C@H]3O)cc2c1` [Compound 9f, 8-[(6′-Methylcoumarin-3′-yl)methylthio]inosine]: the negative-log EC50 (pEC50) in series [1] (Hepatitis C virus, Huh-5-2) was 3.97. For the same compound, the midpoint of cytotoxicity in series [2], the CC50, lay at 106 µM.

`Cc1ccc2oc(=O)c(CSc3nc4c(=O)[nH]c(N)nc4n3[C@@H]3O[C@H](CO)[C@@H](O)[C@H]3O)cc2c1` [Compound 11f, 8-[(6′-Methylcoumarin-3′-yl)methylthio]guanosine]: the pEC50 in series [1] (Hepatitis C virus, Huh-5-2) is 3.99. The same compound displayed a CC50 in series [2] of 103 µM.

In series [1] (Hepatitis C virus, Huh-5-2), `COc1cccc2cc(CSc3nc4c(=O)[nH]cnc4n3[C@@H]3O[C@H](CO)[C@@H](O)[C@H]3O)c(=O)oc12` [Compound 9e, 8-[(8′-Methoxycoumarin-3′-yl)methylthio]inosine] showed a pEC50 of 3.99. The compound also showed a CC50 in series [2] of 102 µM.

In the case of `c1c[nH]cn1` [imidazole], the pEC50 in series [1] (concentration inhibiting virus replication by 50%, real-time quantitative RT-PCR, HCV 1b Huh 5-2 replicon, average of triplicate determinations, read-out: EC50) is less than 3.82. The compound further came in with a 50% cytotoxic concentration (CC50) in the series on Huh 5-2 cells [5] of more than 500 µM.

In series [1] (Hepatitis C virus, Huh-5-2), `Nc1nc2c(nc(SCc3cc4cc(F)ccc4oc3=O)n2[C@@H]2O[C@H](CO)[C@@H](O)[C@H]2O)c(=O)[nH]1` [Compound 11b, 8-[(6′-Fluorocoumarin-3′-yl)methylthio]guanosine] showed a pEC50 of 3.99. In series [2], this compound came in with a CC50 of 102 µM.

Regarding `O=c1oc2ccc(F)cc2cc1CSc1nccn1[C@@H]1O[C@H](CO)[C@@H](O)[C@H]1O` [Compound 7b, 1-(β-D-Ribofuranos-1″-yl)-2-[(6′-fluorocoumarin-3′-yl)methylthio]imidazole], the melting point lay within 171.2 to 172.4 °C. The same compound gave a pEC50 in series [1] (Hepatitis C virus, Huh-5-2) of 4.59. Further, in series [2], the CC50 came out at 122 µM.

For `O=c1oc2ccc(F)cc2cc1CSc1nc2c(=O)[nH]cnc2n1[C@@H]1O[C@H](CO)[C@@H](O)[C@H]1O` [Compound 9b, 8-[(6′-Fluorocoumarin-3′-yl)methylthio]inosine], the pEC50 in series [1] (Hepatitis C virus, Huh-5-2) is 4.14. For the same compound, the half-maximal cytotoxic concentration (CC50) in series [2] was determined as 105 µM.

In series [1] (Hepatitis C virus, Huh-5-2), `O=c1oc2ccc(Br)cc2cc1CSc1nc2c(=O)[nH]cnc2n1[C@@H]1O[C@H](CO)[C@@H](O)[C@H]1O` [Compound 9d, 8-[(6′-Bromocoumarin-3′-yl)methylthio]inosine] showed a pEC50 of 4.15. The compound also displayed a CC50 in series [2] of 93 µM.

Turning to `COc1cccc2cc(CSc3nc4c(=O)[nH]c(N)nc4n3[C@@H]3O[C@H](CO)[C@@H](O)[C@H]3O)c(=O)oc12` [Compound 11e, 8-[(8′-Methoxycoumarin-3′-yl)methylthio]guanosine], in series [1] (Hepatitis C virus, Huh-5-2), the pEC50 was 4.00. Besides, the CC50 in series [2] was 99 µM.

Compound `O=c1oc2ccccc2cc1CSc1nccn1[C@@H]1O[C@H](CO)[C@@H](O)[C@H]1O` [Compound 7a, 1-(β-D-Ribofuranos-1″-yl)-2-[(coumarin-3′-yl)methylthio]imidazole] displayed a melting point of 164.6 to 165.4 °C. Besides, the pEC50 in series [1] (Hepatitis C virus, Huh-5-2) is 4.23. Also, the midpoint of cytotoxicity in series [2], the CC50, lay at 128 µM.

`COc1cccc2cc(CSc3ncc[nH]3)c(=O)oc12` [Compound 3e, 2-[(8′-Methoxycoumarin-3′-yl)methylthio]imidazole] gave a melting point of 269.8 to 270.6 °C. Besides, in series [1] (Hepatitis C virus, Huh-5-2), the pEC50 was 5.08. The CC50 in series [2] came to 173 µM.

In turn, `O=c1oc2ccc(F)cc2cc1CSc1ncc[nH]1` [Compound 3b, 2-[(6′-Fluorocoumarin-3′-yl)methylthio]imidazole] registered a melting point of 258.6 to 259.4 °C. This compound also had a pEC50 in series [1] (Hepatitis C virus, Huh-5-2) of 5.14. Moreover, in series [2], the midpoint of cytotoxicity, the CC50, lay at 83 µM.

`O=c1oc2ccccc2cc1CSc1ncc[nH]1` [Compound 3a, 2-[(Coumarin-3’-yl)methylthio]imidazole] had a melting point of 252 to 252.8 °C. Further, the pEC50 in series [1] (Hepatitis C virus, Huh-5-2) was 4.52. In addition, it took 122 µM to reach half-maximal cytotoxicity in series [2] (CC50).

In the case of `O=c1ccc2ccccc2o1` [coumarin], the pEC50 in series [1] (Hepatitis C virus, Huh-5-2) was less than 3.82. Also, the CC50 in series [2] was more than 500 µM.

Turning to `O=c1oc2ccccc2cc1CSc1nc2ccccc2[nH]1` [Compound 12a], the pEC50 in series [3] was 4.57. Besides, the CC50 in the series with Huh 5-2 cells [4] was 90 µM.

`O=c1oc2ccc(Cl)cc2cc1CSc1nccn1[C@@H]1O[C@H](CO)[C@@H](O)[C@H]1O` [Compound 7c, 1-(β-D-Ribofuranos-1″-yl)-2-[(6′-chlorocoumarin-3′-yl)methylthio]imidazole] gave a melting point of 178.8 to 179.6 °C. The compound further gave a pEC50 in series [1] (Hepatitis C virus, Huh-5-2) of 4.85. This compound returned a CC50 in series [2] of 85 µM.

As to `O=c1oc2ccccc2cc1CSc1nc2c(=O)[nH]cnc2n1[C@@H]1O[C@H](CO)[C@@H](O)[C@H]1O` [Compound 9a, 8-[(Coumarin-3′-yl)methylthio]inosine], the pEC50 in series [1] (Hepatitis C virus, Huh-5-2) is 4.21. In series [2], this compound displayed a CC50 of 109 µM.

`O=c1oc2ccc(Cl)cc2cc1CSc1ncc[nH]1` [Compound 3c, 2-[(6′-Chlorocoumarin-3′-yl)methylthio]imidazole] had a melting point of 266.2 to 270 °C. For the same compound, the pEC50 in series [1] (Hepatitis C virus, Huh-5-2) is 5.01. In series [2], this compound had a CC50 of 85 µM.
